We go through 26 compounds from patent publication US20260176267A1, “PREPARATION OF IMIDAZOPYRIDINE AND IMIDAZOPYRIDAZINE DERIVATIVES AS NOVEL DIACYLGLYCERIDE O-ACYLTRANSFERASE 2 INHIBITORS” (Merck Sharp & Dohme LLC, priority 2022, published 2026).

This assay addresses T1, human DGAT2 (hDGAT2) (Homo sapiens, UniProt Q96PD7).
T1 construct: made in house; host or cells: Sf-9 insect cells (baculovirus), membrane fraction
T1 sequence (Q96PD7 1-388): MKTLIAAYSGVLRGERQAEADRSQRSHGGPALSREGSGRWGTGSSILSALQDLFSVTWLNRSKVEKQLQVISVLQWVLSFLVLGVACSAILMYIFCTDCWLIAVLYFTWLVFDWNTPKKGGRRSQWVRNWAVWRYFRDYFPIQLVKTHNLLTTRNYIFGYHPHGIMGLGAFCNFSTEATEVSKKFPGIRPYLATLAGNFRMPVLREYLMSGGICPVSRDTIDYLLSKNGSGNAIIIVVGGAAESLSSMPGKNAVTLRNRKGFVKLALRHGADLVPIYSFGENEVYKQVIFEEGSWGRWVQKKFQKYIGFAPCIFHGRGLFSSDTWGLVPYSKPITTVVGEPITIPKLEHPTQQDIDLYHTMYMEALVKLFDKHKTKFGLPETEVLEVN
The experiment in a line: DGAT2 Enzymatic Activity Assay. It is filed as biochemical. Conditions: membrane prep of Sf-9 cells expressing hDGAT2; 13C18-triolein product by LC/MS/MS; 25 μM diolein, 5 μM 13C oleoyl-CoA, rt. In short, it runs like this:
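At room temperature, DGAT2 activity in baculovirus-infected Sf-9 membrane preps (human enzyme, untagged) is measured as formation of ^13C18-triolein. Product is extracted and measured by positive-mode LC/MS/MS, with the ratio to spiked ^13C21-triolein giving inhibition and IC50.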

In turn, `CCC1(NC(=O)c2nc3ccc(Oc4ncc(F)cc4OCC(F)F)cn3c2C)CCS(=O)(=O)CC1` [Example 66, 6-[[3-(2,2-difluoroethoxy)-5-fluoro-2-pyridyl]oxy]-N-(4-ethyl-1,1-dioxo-thian-4-yl)-3-methyl-imidazo[1,2-a]pyridine-2-carboxamide] gave an IC50 of 0.8 nM. Next, `Cc1c(C(=O)NC2(C)CCS(=O)(=O)CC2)nc2ccc(Oc3ncc(F)cc3OCC3(F)CC3)cn12` [Example 68]: 0.8 nM; `CCOc1cc(Cl)cnc1Oc1ccc2nc(C(=O)NC3(C)CS(=O)(=O)C3)c(C)n2c1` [Example 69, 6-[(5-chloro-3-ethoxy-2-pyridyl)oxy]-3-methyl-N-(3-methyl-1,1-dioxo-thietan-3-yl)imidazo[1,2-a]pyridine-2-carboxamide]: 2 nM; `CCC1(NC(=O)c2nc3ccc(Oc4ncc(F)cc4OCC(F)F)cn3c2C)CS(=O)(=O)C1` [Example 70, 6-[[3-(2,2-difluoroethoxy)-5-fluoro-2-pyridyl]oxy]-N-(3-ethyl-1,1-dioxo-thietan-3-yl)-3-methyl-imidazo[1,2-a]pyridine-2-carboxamide]: 74.3 nM. With `Cc1c(C(=O)NC2(C)CCS(=O)(=O)CC2)nc2ccc(Oc3ncc(Cl)cc3OCC(F)F)cn12` [Example 71, 6-[[5-chloro-3-(2,2-difluoroethoxy)-2-pyridyl]oxy]-3-methyl-N-(4-methyl-1,1-dioxo-thian-4-yl)imidazo[1,2-a]pyridine-2-carboxamide] the figure was 1.4 nM. Next, `Cc1c(C(=O)NC2(C)CCS(=O)(=O)CC2)nc2ccc(Oc3ncc(F)cc3OCC(F)F)cn12` [Example 73, 6-[[3-(2,2-difluoroethoxy)-5-fluoro-2-pyridyl]oxy]-3-methyl-N-(4-methyl-1,1-dioxo-thian-4-yl)imidazo[1,2-a]pyridine-2-carboxamide]: 2.6 nM; `Cc1c(C(=O)NC2(C)CS(=O)(=O)C2)nc2ccc(Oc3ncc(F)cc3OCC(F)F)cn12` [Example 74, 6-[[3-(2,2-difluoroethoxy)-5-fluoro-2-pyridyl]oxy]-3-methyl-N-(3-methyl-1,1-dioxo-thietan-3-yl)imidazo[1,2-a]pyridine-2-carboxamide]: 6.7 nM. As for `Cc1c(C(=O)NC2(C)CCS(=O)(=O)CC2)nc2ccc(Oc3ncc(C(C)C)cc3OCC(F)(F)F)cn12` [Example 75, 6-[[5-isopropyl-3-(2,2,2-trifluoroethoxy)-2-pyridyl]oxy]-3-methyl-N-(4-methyl-1,1-dioxo-thian-4-yl)imidazo[1,2-a]pyridine-2-carboxamide], it took 6.6 nM to reach half-maximal inhibition (IC50). Next, `Cc1c(C(=O)NC2(CC#N)CCS(=O)(=O)CC2)nc2ccc(Oc3ncc(Cl)cc3OCC(F)F)cn12` [Example 76, 6-[[5-chloro-3-(2,2-difluoroethoxy)-2-pyridyl]oxy]-N-[4-(cyanomethyl)-1,1-dioxo-thian-4-yl]-3-methyl-imidazo[1,2-a]pyridine-2-carboxamide]: 1.2 nM; `CCC1(NC(=O)c2nc3ccc(Oc4ncc(F)cc4OCC(F)(F)F)cn3c2C)CCS(=O)(=O)CC1` [Example 77, N-(4-ethyl-1,1-dioxo-thian-4-yl)-6-[[5-fluoro-3-(2,2,2-trifluoroethoxy)-2-pyridyl]oxy]-3-methyl-imidazo[1,2-a]pyridine-2-carboxamide]: 33 nM; `Cc1cnc(Oc2ccc3nc(C(=O)NC4(C)CCS(=O)(=O)CC4)c(C)n3c2)c(OCC(F)(F)F)n1` [Example 78, 3-methyl-N-(4-methyl-1,1-dioxo-thian-4-yl)-6-[5-methyl-3-(2,2,2-trifluoroethoxy)pyrazin-2-yl]oxy-imidazo[1,2-a]pyridine-2-carboxamide]: 3 nM.

For the compound `CCc1cnc(Oc2ccc3nc(C(=O)NC4(C)CS(=O)(=O)C4)c(C)n3c2)c(OCC(F)(F)F)c1` [Example 79, 6-[[5-ethyl-3-(2,2,2-trifluoroethoxy)-2-pyridyl]oxy]-3-methyl-N-(3-methyl-1,1-dioxo-thietan-3-yl)imidazo[1,2-a]pyridine-2-carboxamide], the concentration for half-maximal inhibition (IC50) came to 6.8 nM. With `Cc1c(C(=O)NC2CS(=O)(=O)C2(C)C)nc2ccc(Oc3ncc(Cl)cc3OCC(F)F)cn12` (centres unmarked) [Example 80, 6-[[5-chloro-3-(2,2-difluoroethoxy)-2-pyridyl]oxy]-N-(2,2-dimethyl-1,1-dioxo-thietan-3-yl)-3-methyl-imidazo[1,2-a]pyridine-2-carboxamide] the figure was 3.8 nM; with `Cc1c(C(=O)NC2(C)CCS(=O)(=O)CC2)nc2ccc(Oc3ncc(Cl)cc3OCC3(F)CC3)cn12` [Example 81, 6-[[5-chloro-3-[(1-fluorocyclopropyl)methoxy]-2-pyridyl]oxy]-3-methyl-N-(4-methyl-1,1-dioxo-thian-4-yl)imidazo[1,2-a]pyridine-2-carboxamide], 3.5 nM. Next, `Cc1c(C(=O)NC2(C)CCS(=O)(=O)CC2)nc2ccc(Oc3nccnc3OCC(F)(F)F)cn12` [Example 82, 3-methyl-N-(4-methyl-1,1-dioxo-thian-4-yl)-6-[3-(2,2,2-trifluoroethoxy)pyrazin-2-yl]oxy-imidazo[1,2-a]pyridine-2-carboxamide]: 9.1 nM.

Regarding `CO[C@]1(C(F)(F)F)C[C@H](NC(=O)c2nc3ccc(Oc4ncc(F)cc4OCC(F)F)cn3c2C)C1` [Example 83, 6-[[3-(2,2-difluoroethoxy)-5-fluoro-2-pyridyl]oxy]-N-[3-methoxy-3-(trifluoromethyl)cyclobutyl]-3-methyl-imidazo[1,2-a]pyridine-2-carboxamide], the half-inhibitory concentration (IC50) is 12 nM. With `Cc1c(C(=O)NC2(C)CS(=O)(=O)C2)nc2ccc(Oc3ncc(Cl)cc3OCC(F)(F)F)cn12` [Example 84, 6-[[5-chloro-3-(2,2,2-trifluoroethoxy)-2-pyridyl]oxy]-3-methyl-N-(3-methyl-1,1-dioxo-thietan-3-yl)imidazo[1,2-a]pyridine-2-carboxamide] the figure was 6.2 nM. Next, `Cc1c(C(=O)NC2(C)CN(C(=O)C(F)(F)F)C2)nc2ccc(Oc3ncc(F)cc3OCC(F)F)cn12` [Example 85, 6-[[3-(2,2-difluoroethoxy)-5-fluoro-2-pyridyl]oxy]-3-methyl-N-[3-methyl-1-(2,2,2-trifluoroacetyl)azetidin-3-yl]imidazo[1,2-a]pyridine-2-carboxamide]: 1.6 nM.

Consider `Cc1c(C(=O)NC2(C)CCC(F)(F)CC2)nc2ccc(Oc3ncccc3OCC(F)F)cn12` [Example 86, 6-[[3-(2,2-difluoroethoxy)-2-pyridyl]oxy]-N-(4,4-difluoro-1-methyl-cyclohexyl)-3-methyl-imidazo[1,2-a]pyridine-2-carboxamide], for which the IC50 was 6.8 nM. With `Cc1c(C(=O)NC2(C)CCS(=O)(=O)CC2)nc2ccc(Oc3ncccc3OCC(F)(F)F)cn12` [Example 87, 3-methyl-N-(4-methyl-1,1-dioxo-thian-4-yl)-6-[[3-(2,2,2-trifluoroethoxy)-2-pyridyl]oxy]imidazo[1,2-a]pyridine-2-carboxamide] the figure was 17 nM; with `Cc1c(C(=O)NC2(C)CCS(=O)(=O)CC2)nc2ccc(Oc3ncc(F)cc3OCC(F)(F)F)cn12` [Example 88, 6-[[5-fluoro-3-(2,2,2-trifluoroethoxy)-2-pyridyl]oxy]-3-methyl-N-(4-methyl-1,1-dioxo-thian-4-yl)imidazo[1,2-a]pyridine-2-carboxamide], 8.3 nM; with `Cc1c(C(=O)NC2(C)CN(C(=O)C(F)(F)F)C2)nc2ccc(Oc3ncc(F)cc3OCC(F)(F)F)cn12` [Example 89, 6-[[5-fluoro-3-(2,2,2-trifluoroethoxy)-2-pyridyl]oxy]-3-methyl-N-[3-methyl-1-(2,2,2-trifluoroacetyl)azetidin-3-yl]imidazo[1,2-a]pyridine-2-carboxamide], 20 nM. With `Cc1c(C(=O)NC2(C)CS(=O)(=O)C2)nc2ccc(Oc3ncccc3OCC(F)F)cn12` [Example 90, 6-[[3-(2,2-difluoroethoxy)-2-pyridyl]oxy]-3-methyl-N-(3-methyl-1,1-dioxo-thietan-3-yl)imidazo[1,2-a]pyridine-2-carboxamide] the figure was 5 nM; with `Cc1c(C(=O)NC2(C(C)C)CCS(=O)(=O)CC2)nc2ccc(Oc3ncc(F)cc3OCC(F)(F)F)cn12` [Example 91, 6-[[5-fluoro-3-(2,2,2-trifluoroethoxy)-2-pyridyl]oxy]-N-(4-isopropyl-1,1-dioxo-thian-4-yl)-3-methyl-imidazo[1,2-a]pyridine-2-carboxamide], 22 nM; with `Cc1c(C(=O)NC2(C)CCS(=O)(=O)CC2)nc2ccc(Oc3ncc(C(F)(F)F)cc3OCC(F)(F)F)cn12` [Example 92, 3-methyl-N-(4-methyl-1,1-dioxo-thian-4-yl)-6-[[3-(2,2,2-trifluoroethoxy)-5-(trifluoromethyl)-2-pyridyl]oxy]imidazo[1,2-a]pyridine-2-carboxamide], 17 nM. Next, `Cc1c(C(=O)NC2CCS(=O)(=O)C(C)(C)C2)nc2ccc(Oc3ncc(F)cc3OCC(F)F)cn12` (centres unmarked) [Example 93, 6-[[3-(2,2-difluoroethoxy)-5-fluoro-2-pyridyl]oxy]-N-(2,2-dimethyl-1,1-dioxo-thian-4-yl)-3-methyl-imidazo[1,2-a]pyridine-2-carboxamide]: 2.9 nM.
